{
  "source": "patent US10040802B2",
  "about": "“Thienopyrazine inhibitors of IRAK4 activity” (MERCK SHARP & DOHME CORP., priority 2015, dated 2018)",
  "biological_target": "GST tagged IRAK4 (Homo sapiens (Human), UniProt Q9NWZ3)",
  "sequence (Q9NWZ3 whole entry)": "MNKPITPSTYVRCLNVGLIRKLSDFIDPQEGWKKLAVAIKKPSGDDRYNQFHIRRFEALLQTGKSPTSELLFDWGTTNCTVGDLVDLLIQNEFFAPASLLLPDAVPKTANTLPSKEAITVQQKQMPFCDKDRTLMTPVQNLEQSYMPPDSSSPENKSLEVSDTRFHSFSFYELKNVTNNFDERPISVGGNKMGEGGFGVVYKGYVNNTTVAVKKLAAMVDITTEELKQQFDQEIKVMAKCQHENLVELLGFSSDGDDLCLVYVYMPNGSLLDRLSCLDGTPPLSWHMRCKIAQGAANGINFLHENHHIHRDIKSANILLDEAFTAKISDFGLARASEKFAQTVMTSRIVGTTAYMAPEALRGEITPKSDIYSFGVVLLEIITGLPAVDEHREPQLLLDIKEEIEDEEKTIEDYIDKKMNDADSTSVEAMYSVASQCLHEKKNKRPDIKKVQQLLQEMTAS",
  "assay": "IRAK4 Kinase Assay (IMAP fluorescence polarization)",
  "format": "biochemical",
  "conditions": "0.5 nM GST tagged IRAK4, 100 μM ATP, 30 minutes at 25° C.",
  "method_in_brief": "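GST-tagged IRAK4 (0.5 nM) phosphorylates 100 nM fluorescent peptide with 100 μM ATP in 10 mM Tris pH 7.2, 1 mM MgCl2, 1 mM DTT, 0.01% Tween 20 for 30 min at 25 °C. Phosphorylation read as IMAP nanoparticle-binding fluorescence polarization after stop reagent.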",
  "note": "Where a name gives a salt, the structure may show the parent alone.",
  "data": [
    {"smiles": "Cn1cc(NC(=O)c2csc3ncc(N[C@@H]4CCCCNC4)nc23)c(C(F)F)n1", "note": "(single isomer, unassigned) [Example 33, 2-[(3S)- or (3R)-azepan-3-ylamino]-N-[3-(difluoromethyl)-1-methyl-1H-pyrazol-4-yl]thieno[2,3-b] pyrazine-7-carboxamide trifluoroacetate]", "values": [
      {"measurement": "IC50", "result": 0.2, "unit": "nM"}
    ]},
    {"smiles": "Cn1cc(NC(=O)c2csc3ncc(N[C@@H]4CCCC[C@@H]4N)nc23)c(C#N)n1", "note": "[Example 37, 2-{[(1R,2S)-2-aminocyclohexyl]amino}-N-(3-cyano-1-methyl-1H-pyrazol-4-yl)thieno[2,3-b] pyrazine-7-carboxamide trifluoroacetate]", "values": [
      {"measurement": "IC50", "result": 0.4, "unit": "nM"}
    ]},
    {"smiles": "N#Cc1cscc1NC(=O)c1csc2ncc(N[C@@H]3CCCC(F)(F)[C@@H]3N)nc12", "note": "[Example 79, 2-{[(1R,2R)-2-amino-3,3-difluorocyclohexyl]amino}-N-(4-cyanothiophen-3-yl) thieno[2,3-b] pyrazine-7-carboxamide trifluoroacetate]", "values": [
      {"measurement": "IC50", "result": 371, "unit": "nM"}
    ]},
    {"smiles": "N[C@H]1CCCC[C@H]1Nc1cnc2scc(C(=O)Nc3ccsc3C(F)(F)F)c2n1", "note": "[Example 76, 2-{[(1R,2S)-2-amino-cyclohexyl]amino}-N-(2-(trifluoromethyl)thiophen-3-yl] thieno[2,3-b] pyrazine-7-carboxamide trifluoroacetate]", "values": [
      {"measurement": "IC50", "result": 12, "unit": "nM"}
    ]},
    {"smiles": "O=C(Nc1ccccc1C(F)F)c1csc2ncc(N3CCCNCC3)nc12", "note": "[Example 103, 2-(1,4-diazepan-1-yl)-N-[2-(difluoromethyl)phenyl]thieno[2,3-b]pyrazine-7-carboxamide trifluoroacetate]", "values": [
      {"measurement": "IC50", "result": 3630, "unit": "nM"}
    ]},
    {"smiles": "Cn1cc(NC(=O)c2csc3ncc(N[C@@H]4CCCC[C@@H]4O)nc23)c(C(F)F)n1", "note": "[Example 10, N-[3-(difluoromethyl)-1-methyl-1H-pyrazol-4-yl]-2-{[(1R,2S)-2-hydroxycyclohexyl]amino}thieno[2,3-b] pyrazine-7-carboxamide]", "values": [
      {"measurement": "IC50", "result": 30, "unit": "nM"}
    ]}
  ]
}
